# According to patent US11572557B2, “Photoreversible acylation reagents” (The Board of Trustees of the Leland Stanford Junior …, priority 2018, dated 2023):
# Legend:
# 12 nt DNA = assay: Control incubation of analogous 12 nt DNA with PCA 1 (PAGE); conditions: analogous 12 nt DNA incubated with PCA 1
# [1] = tested on: 34 nt hammerhead ribozyme RNA; assay: Hammerhead ribozyme cleavage of Cy5-labeled substrate (urea PAGE); assay type: biochemical
# Excerpt: In this example, the ability of photocloaking to control the more complex function of a ribozyme RNA was examined. To form proper tertiary structure and initiate activity, RNA-cleaving ribozymes hybridize and bind metals (See Y Liu, T. J. Wilson, and D. M. J. Lilley Nat. Chem. Biol. 2017, 13, 508-13, the disclosure of which is herein incorporated by reference. Several examples of photocontrolled ribozymes have been reported previously (See S. G. Chaulk and A. M. MacMillan Nucleic Acids Res. 1998, 26, 3173-78; A. Nierth, M. Singer and A Jaschke Chem. Commun. (Camb). 2010, 46, 7975-77; D. D. Young and A. Dieters Bioorganic Med. Chem. Lett. 2006, 16, 2658-61; and S. G. Chaulk and A. M. MacMillan, 2007 cited supra; the disclosures of which are herein incorporated by reference), with the goal of studying ribozyme structure and folding. All prior studies, however, have been performed with modifications incorporated into RNAs during solid-phase synthesis. Thus, PCA 1 was tested whether it could be used to block a ribozyme in a single post-synthetic step, and subsequently phototrigger its activity. A 34 nt hammerhead ribozyme RNA (FIG. 18A; Seq. ID No. 5) was cloaked under standard conditions at room temperature and isolated from excess reagent and DMSO by precipitation. The cloaked ribozyme (200 nM) was then incubated with Cy5-labeled substrate (500 nM) in 50 mM Tris pH=6.0, 10 mM MgCl2 for 1 hour. The reaction was stopped by the addition of 8 M urea, 100 mM EDTA solution and then analyzed by urea PAGE (FIGS. 18B and 18C). […] The initial rates of substrate conversion were determined before and after cloaking (FIGS. 18D and 18E). […] After cloaking, the rate dropped 370-fold to 3.010^−3 min^−1, showing strong blocking of ribozyme function. […] Thus, ribozyme function can be robustly controlled by a direct photocloaking strategy.
# [2] = tested on: 105 nt F30 Broccoli aptamer; assay: Broccoli aptamer folding / DFHBI fluorescence emission in vitro; assay type: biochemical; conditions: RNA cloaked 4 h with 100 mM PCA in water, no light
# Procedure: In this example, the ability of PCAs to control longer RNAs produced by transcription was tested. Photocontrolled aptamers have recently gained interest due to their potential for therapeutic and imaging applications, as exemplified by recent work by Langer and Kohane in which a 26nt nucleolin-binding aptamer for cancer targeting was reported (L. Li et al. Proc. Natl. Acad. Sci. 2014, 111, 17099-103, the disclosure of which is herein incorporated by reference; See also, M. C. Buff et al Nucleic Acids Res. 2009, 38, 2111-18; L. Qiu et al. J. Am. Chem. Soc. 2013, 135, 12952-55; A Heckel and G. Mayer J. Am. Chem. Soc. 2005, 12, 822-23; and A. Pinto et al. ACS Chem. Biol. 2012, 7, 360-66; the disclosure of which are herein incorporated by reference). […] Broccoli RNA folds into a compact tertiary structure, forming a binding site for the DFHBI dye, which results in a strong increase in fluorescence.
# F-30 Broccoli DNA template (3 ng) (Table S1) was amplified by PCR (98° C. for 30 s; 30 times: 98° C. for 10 s, 61° C. for 30 s, 72° C. for 30 s; 72° C. for 5 min, 4° C. forever) using Phusion High-Fidelity PCR master Mix (NEB), and primers mix in 50 μL reaction, according to the NEB protocol. […] Fluorescent emission spectra were recorded on a Fluorolog 3-11 instrument (Jobin Yvon-SPEX), λex=450 nm at 25° C. […]
# [3] = tested on: F30-2xd Broccoli aptamer RNA in HeLa cells; assay: Epifluorescence microscopy of HeLa cells transfected with 237 nt Broccoli aptamer RNA; assay type: cell-based, human
# Procedure: In this example, the capability to use this photocloaking strategy to switch on RNA function in cells was assessed by transfecting a cloaked Broccoli RNA construct into human cells and then exposing cells to light was explored. For these experiments, a larger 237 nt RNA (Seq. ID No. 7) construct encoding two dimeric Broccoli aptamers was prepared. This construct is known to be stable in the intracellular medium (G. S. Filonoy et al. Chem. Biol. 2015, 22 (5), 649-60, the disclosure of which is herein incorporated by reference). Accordingly, F30-2xdB_2 DNA (100 pmol; Seq. ID No. 8) was 5′ adenylated using Mth Ligase (100 pmol, NEB) according to NEB's protocol. Mini Elute columns, and PNI Buffer (Qiagen) were used to clean up double stranded DNA samples according to manufacturer's instructions. ssDNAs F30-2xdB_2 (40 pmol) and F30-2xdB_1 (20 pmol) were ligated according to NEB description, using Thermostable 5′ App DNA/RNA Ligase (40 pmol, NEB). Ligated DNA was purified on DNA Clean&Concentrator 5 columns (Zymo Research) using Zymo's protocol. F-30 2xd Broccoli ssDNA template (3 ng) was amplified by PCR (98° C. for 30 s; 30 times: 98° C. for 10 s, 60° C. for 30 s, 72° C. for 30 s; 72° C. for 5 min, 4° C. forever) using Phusion High-Fidelity PCR master Mix (NEB), and primers mix in 50 μL reaction, according to the NEB protocol. […]
# complementary DNA strand = assay: Thermal denaturation (melting curve) of RNA template 1 annealed to complementary DNA; assay type: physicochemical; conditions: duplex with complementary DNA, phosphate buffer pH=7.2, 100 mM NaCl, 300 nM
# Procedure: Hybridization of untreated, cloaked, and uncloaked RNA was examined. Initial experiments measured the effect of photocloaking on thermal stability of a duplex. Untreated and cloaked RNA template 1 (Seq. ID No. 2) were annealed to its complementary DNA strand in phosphate buffer pH=7.2, 100 mM NaCl at 300 nM by heating the sample to 95° C. for 2 min and then cooling to room temperature. Melting curves were obtained by monitoring the absorbance at 260 nm of the nucleic acid solution while increasing the temperature at a rate of 1° C./min. Curves were smoothed by adjacent averaging.
# [4] = tested on: complementary fluorogenic DNA (Q-STAR) probes; assay: Nucleic acid-templated fluorogenic Q-STAR reaction (hybridization); assay type: biochemical
# Procedure: To further test the effect of cloaking on hybridization, a nucleic acid-templated reaction was employed with complementary fluorogenic DNA (Q-STAR) probes (R. M. Franzini and E. T. Kool J. Am. Chem. Soc. 2009, 131, 16021-23; and W. A. Velema and E. T. Kool J. Am. Chem. Soc. 2017, 139, 5405-11; the disclosures of which are herein incorporated by reference). RNA template (untreated, cloaked or photo-uncloaked) was dissolved in 70 mM Tris-Borate buffer pH=7.0, 10 mM MgCl2 to a concentration of 200 nM. To this was added QSTAR probe (200 nM; Seq. ID No. 3) and TPP probe (400 nM; Seq. ID No. 4) and the fluorescence was monitored overtime at 25° C. on a Fluorolog 3-11 instrument (Jobin Yvon-SPEX). λex=497 nm and λem=519 nm. Plots were smoothed by adjacent averaging. […] After the cloaked RNA was exposed to light for up to an hour and subjected to the Q-STAR hybridization probes, a strong restoration of signal (82% of original) was observed (FIG. 17B), consistent with uncloaking at relatively high efficiency.
Compound,reaction with DNA (12 nt DNA) [%],drop of rate vs mock-treated ribozyme ([1]; after cloaking with PCA 1) [fold],initial rate of substrate conversion ([1]; cloaked RNA exposed to light) [min⁻¹],"ribozyme function after uncloaking ([1]; cloaked with PCA 1, after 365 nm light exposure)","ribozyme activity (substrate cleavage) ([1]; ribozyme cloaked with PCA 1, 200 nM, substrate 500 nM, 1 hour)",Broccoli RNA fluorescence with DFHBI [2],"fluorescence signal in cells ([3]; 237 nt RNA cloaked with PCA 2, HeLa cells, subsequent light exposure (30 minutes))","fluorescence signal in cells ([3]; 237 nt RNA cloaked with PCA 2, transfected in HeLa cells, no light)",difference in melting temperature vs untreated RNA strand (complementary DNA strand) [°C],restoration of signal ([4]; cloaked RNA exposed to light for up to an hour),"fluorogenic templated reaction signal ([4]; cloaked RNA template 200 nM, no light, 25° C.)"
"COc1cc(COC(=O)n2ccnc2Cl)c([N+](=O)[O-])cc1OCCN(C)C [PCA 1, 4-(2-(dimethylamino)ethoxy)-5-methoxy-2-nitrobenzyl 2-chloro-1H-imidazole-1-carboxylate]",< 5,370,1.1,almost completely restored,almost complete abrogation of activity,strong suppression of fluorescence,,,,,
"COc1cc(C(C)OC(=O)n2ccnc2Cl)c([N+](=O)[O-])cc1OCCN(C)C (stereo not drawn) [PCA 2, 1-(4-(2-(dimethylamino)ethoxy)-5-methoxy-2-nitrophenyl)ethyl 2-chloro-1H-imidazole-1-carboxylate]",,,,,,very dim fluorescence,emergence of a visible green fluorescence signal,no measurable signal above background,,,
"cloaked RNA template 1: RNA template 1 (Seq. ID No. 2, 5′ GCU CCC CAG CUU UCG C) acylated at 2′-OH with photocloaking groups (GCUCCCCAGCUUUCGC; RNA, backbone not given here; 2'-OH acylated with photocloaking groups, further chemistry not fully specified)",,,,,,,,,10,82 % of original,9 % of untreated RNA
